Converted amounts (≈) assume the structure as drawn. The source made the active and inactive calls. No cut-off for these calls is given here.
Legend:
[1] = tested on: Mycobacterium tuberculosis; assay: Antimycobacterial activity against extensively drug-resistant Mycobacterium tuberculosis isolate 625 horboring rpoB S531L/G566R/I569L, katG S315T/R463L, gyrA A90V/S95T, rrs A1401G by CLSI method; type: functional
[2] = tested on: Mycobacterium tuberculosis; assay: Antimycobacterial activity against extensively drug-resistant Mycobacterium tuberculosis isolate 761 horboring rpoB S531L/Q510P, katG S315T/R463L, gyrA D94N/S95T, rrs G1484T by CLSI method; type: functional
[3] = tested on: Mycobacterium tuberculosis; assay: Antimycobacterial activity against extensively drug-resistant Mycobacterium tuberculosis isolate 2301 horboring rpoB S531L, katG R463L/E217G, gyrA D94N/S95T, rrs A1401G by CLSI method; type: functional
[4] = tested on: Mycobacterium tuberculosis; assay: Antimycobacterial activity against extensively drug-resistant Mycobacterium tuberculosis isolate 2474 horboring rpoB H526Y, katG D329A/R463L, gyrA D94G/S95T, rrs A1401G by CLSI method; type: functional
[5] = tested on: Mycobacterium tuberculosis; assay: Antimycobacterial activity against extensively drug-resistant Mycobacterium tuberculosis isolate 2911 horboring rpoB D516V, katG S315T/R463L, gyrA D94G/S95T/R128S/Y129C, rrs A1401G by CLSI method; type: functional
[6] = tested on: Mycobacterium tuberculosis; assay: Antimycobacterial activity against extensively drug-resistant Mycobacterium tuberculosis H37Rv by CLSI method; type: functional
[7] = tested on: Mycobacterium tuberculosis; assay: Antimycobacterial activity against extensively drug-resistant Mycobacterium tuberculosis isolate 2403 obtained from sputum of patient at 0.1 ug/ml by Bactec MGIT960 modified proportion method; type: functional, organism-based
[8] = tested on: Mycobacterium tuberculosis; assay: Antimycobacterial activity against extensively drug-resistant Mycobacterium tuberculosis isolate 2301 obtained from sputum of patient at 0.1 ug/ml by Bactec MGIT960 modified proportion method; type: functional, organism-based
[9] = tested on: Mycobacterium tuberculosis; assay: Antimycobacterial activity against extensively drug-resistant Mycobacterium tuberculosis isolate 2911 obtained from sputum of patient at 0.1 ug/ml by Bactec MGIT960 modified proportion method; type: functional, organism-based
[10] = tested on: Mycobacterium tuberculosis; assay: Antimycobacterial activity against extensively drug-resistant Mycobacterium tuberculosis isolate 2474 obtained from sputum of patient at 0.1 ug/ml by Bactec MGIT960 modified proportion method; type: functional, organism-based
[11] = tested on: Mycobacterium tuberculosis; assay: Antimycobacterial activity against extensively drug-resistant Mycobacterium tuberculosis isolate 625 obtained from sputum of patient at 0.1 ug/ml by Bactec MGIT960 modified proportion method; type: functional, organism-based
[12] = tested on: Mycobacterium tuberculosis; assay: Antimycobacterial activity against extensively drug-resistant Mycobacterium tuberculosis isolate 761 obtained from pus of patient at 0.1 ug/ml by Bactec MGIT960 modified proportion method; type: functional, organism-based
[13] = tested on: Mycobacterium tuberculosis; assay: Antimycobacterial activity against extensively drug-resistant Mycobacterium tuberculosis isolate 2403 obtained from sputum of patient at 4 ug/ml by Bactec MGIT960 modified proportion method; type: functional, organism-based
[14] = tested on: Mycobacterium tuberculosis; assay: Antimycobacterial activity against extensively drug-resistant Mycobacterium tuberculosis isolate 2301 obtained from sputum of patient at 4 ug/ml by Bactec MGIT960 modified proportion method; type: functional, organism-based
[15] = tested on: Mycobacterium tuberculosis; assay: Antimycobacterial activity against extensively drug-resistant Mycobacterium tuberculosis isolate 2911 obtained from sputum of patient at 4 ug/ml by Bactec MGIT960 modified proportion method; type: functional, organism-based
[16] = tested on: Mycobacterium tuberculosis; assay: Antimycobacterial activity against extensively drug-resistant Mycobacterium tuberculosis isolate 2474 obtained from sputum of patient at 4 ug/ml by Bactec MGIT960 modified proportion method; type: functional, organism-based
[17] = tested on: Mycobacterium tuberculosis; assay: Antimycobacterial activity against extensively drug-resistant Mycobacterium tuberculosis isolate 625 obtained from sputum of patient at 4 ug/ml by Bactec MGIT960 modified proportion method; type: functional, organism-based
[18] = tested on: Mycobacterium tuberculosis; assay: Antimycobacterial activity against extensively drug-resistant Mycobacterium tuberculosis isolate 761 obtained from pus of patient at 4 ug/ml by Bactec MGIT960 modified proportion method; type: functional, organism-based
[19] = tested on: Mycobacterium tuberculosis; assay: Antimycobacterial activity against extensively drug-resistant Mycobacterium tuberculosis isolate 2403 obtained from sputum of patient at 2 ug/ml by Bactec MGIT960 modified proportion method; type: functional, organism-based
[20] = tested on: Mycobacterium tuberculosis; assay: Antimycobacterial activity against extensively drug-resistant Mycobacterium tuberculosis isolate 2301 obtained from sputum of patient at 2 ug/ml by Bactec MGIT960 modified proportion method; type: functional, organism-based
[21] = tested on: Mycobacterium tuberculosis; assay: Antimycobacterial activity against extensively drug-resistant Mycobacterium tuberculosis isolate 2911 obtained from sputum of patient at 2 ug/ml by Bactec MGIT960 modified proportion method; type: functional, organism-based
[22] = tested on: Mycobacterium tuberculosis; assay: Antimycobacterial activity against extensively drug-resistant Mycobacterium tuberculosis isolate 2474 obtained from sputum of patient at 2 ug/ml by Bactec MGIT960 modified proportion method; type: functional, organism-based
[23] = tested on: Mycobacterium tuberculosis; assay: Antimycobacterial activity against extensively drug-resistant Mycobacterium tuberculosis isolate 625 obtained from sputum of patient at 2 ug/ml by Bactec MGIT960 modified proportion method; type: functional, organism-based
[24] = tested on: Mycobacterium tuberculosis; assay: Antimycobacterial activity against extensively drug-resistant Mycobacterium tuberculosis isolate 761 obtained from pus of patient at 2 ug/ml by Bactec MGIT960 modified proportion method; type: functional, organism-based
[25] = tested on: Mycobacterium tuberculosis; assay: Antimycobacterial activity against extensively drug-resistant Mycobacterium tuberculosis isolate 2301 obtained from sputum of patient at 1 ug/ml by Bactec MGIT960 modified proportion method; type: functional, organism-based
[26] = tested on: Mycobacterium tuberculosis; assay: Antimycobacterial activity against extensively drug-resistant Mycobacterium tuberculosis isolate 2911 obtained from sputum of patient at 1 ug/ml by Bactec MGIT960 modified proportion method; type: functional, organism-based
[27] = tested on: Mycobacterium tuberculosis; assay: Antimycobacterial activity against extensively drug-resistant Mycobacterium tuberculosis isolate 2474 obtained from sputum of patient at 1 ug/ml by Bactec MGIT960 modified proportion method; type: functional, organism-based
[28] = tested on: Mycobacterium tuberculosis; assay: Antimycobacterial activity against extensively drug-resistant Mycobacterium tuberculosis isolate 625 obtained from sputum of patient at 1 ug/ml by Bactec MGIT960 modified proportion method; type: functional, organism-based
[29] = tested on: Mycobacterium tuberculosis; assay: Antimycobacterial activity against extensively drug-resistant Mycobacterium tuberculosis isolate 761 obtained from pus of patient at 1 ug/ml by Bactec MGIT960 modified proportion method; type: functional, organism-based
[30] = tested on: Mycobacterium tuberculosis; assay: Antimycobacterial activity against extensively drug-resistant Mycobacterium tuberculosis isolate 2403 obtained from sputum of patient at 1 ug/ml by Bactec MGIT960 modified proportion method; type: functional, organism-based

| SMILES | MIC [1] [µg/mL] | MIC [2] [µg/mL] | MIC [3] [µg/mL] | MIC [4] [µg/mL] | MIC [5] [µg/mL] | MIC [6] [µg/mL] | other results |
| --- | --- | --- | --- | --- | --- | --- | --- |
| CCc1cc(C(N)=S)ccn1 [ETHIONAMIDE] | 4 (≈ 24.1 µM) | 1 (≈ 6.02 µM) | 2 (≈ 12 µM) | >16 | 4 (≈ 24.1 µM) | 0.5 (≈ 3.01 µM) |  |
| NNC(=O)c1ccncc1 [ISONIAZID] | >16 | 4 (≈ 29.2 µM) | 0.5 (≈ 3.65 µM) | 1 (≈ 7.29 µM) | 4 (≈ 29.2 µM) | 0.25 (≈ 1.82 µM) | Activity [7]: inactive; Activity [8]: inactive; Activity [9]: inactive; Activity [10]: inactive; Activity [11]: inactive; Activity [12]: inactive |
| NC[C@H]1O[C@H](O[C@H]2[C@H](O)[C@@H](O[C@H]3O[C@H](CO)[C@@H](O)[C@H](N)[C@H]3O)[C@H](N)C[C@@H]2N)[C@H](O)[C@@H](O)[C@@H]1O [KANAMYCIN] | >16 | >16 | >16 | >16 | >16 | 2 (≈ 4.13 µM) | Activity [13]: inactive; Activity [14]: inactive; Activity [15]: inactive; Activity [16]: Active; Activity [17]: inactive; Activity [18]: inactive |
| CC1COc2c(N3CCN(C)CC3)c(F)cc3c(=O)c(C(=O)O)cn1c23 (stereo unspecified) [OFLOXACIN] | 16 (≈ 44.3 µM) | 16 (≈ 44.3 µM) | 8 (≈ 22.1 µM) | 8 (≈ 22.1 µM) | 8 (≈ 22.1 µM) | 0.5 (≈ 1.38 µM) | Activity [19]: inactive; Activity [20]: inactive; Activity [21]: inactive; Activity [22]: inactive; Activity [23]: inactive; Activity [24]: inactive |
| CO[C@H]1/C=C/O[C@@]2(C)Oc3c(C)c(O)c4c(O)c(c(/C=N/N5CCN(C)CC5)c(O)c4c3C2=O)NC(=O)/C(C)=C\C=C\[C@H](C)[C@H](O)[C@@H](C)[C@@H](O)[C@@H](C)[C@H](OC(C)=O)[C@@H]1C [RIFAMPIN] | >16 | >16 | >16 | >16 | 16 (≈ 19.4 µM) | 0.25 (≈ 0.304 µM) | Activity [25]: inactive; Activity [26]: inactive; Activity [27]: inactive; Activity [28]: inactive; Activity [29]: inactive; Activity [30]: inactive |
| C[C@@H]1CN(c2c(F)c(N)c3c(=O)c(C(=O)O)cn(C4CC4)c3c2F)C[C@H](C)N1 [SPARFLOXACIN] | 8 (≈ 20.4 µM) | 16 (≈ 40.8 µM) | 16 (≈ 40.8 µM) | 16 (≈ 40.8 µM) | >16 | 0.5 (≈ 1.27 µM) |  |
| CN[C@@H]1[C@H](O[C@H]2[C@H](O[C@H]3[C@H](O)[C@@H](O)[C@H](N=C(N)N)[C@@H](O)[C@@H]3N=C(N)N)O[C@@H](C)[C@]2(O)C=O)O[C@@H](CO)[C@H](O)[C@H]1O [STREPTOMYCIN] | 16 (≈ 27.5 µM) | 0.125 (≈ 0.215 µM) | 0.5 (≈ 0.86 µM) | >16 | >16 | 1 (≈ 1.72 µM) | Activity [25]: inactive; Activity [26]: inactive; Activity [27]: inactive; Activity [29]: Active; Activity [30]: inactive |

From ChEMBL document CHEMBL1671750, “Emergence and molecular characterization of extensively drug-resistant Mycobacterium tuberculosis clinical isolates from the Delhi Region in India” (2010)
